The source made the active and inactive calls. How the calls were made is not given here.
Target: beta-lactamase TEM-1 reporter (bacterial) (UniProt Q932Y6)
Test: beta-lactamase reporter inhibitor potency, dose response, artefact control for NOD2-RIPK2 interaction inhibitor project, BLA reporter cells, FRET fluorescence (AID 651552)
Conditions: HEK293 BLA reporter cells

Row | SMILES | IC50
1 | C=CCn1c(O)c(C2=c3ccccc3=NC2=O)c2ccccc21 | > 49.7 µM (inactive)
2 | COc1ccc(C[C@H]2NC[C@H](O)[C@H]2OC(C)=O)cc1 | > 49.8 µM (inactive)

From PubChem BioAssay AID651552 (The Scripps Research Institute Molecular Screening Center, 2012)
